SMILES strings stand for the structures. The source made the active and inactive calls. The calls are words filed in the database; no cut-off is given here. Peptide text beside a SMILES is read from it. * marks the point of attachment. Fmoc = O=C(OCC1c2ccccc2-c2ccccc21)*

The results in this text go back to ChEMBL document CHEMBL2010747, “Synthesis of [12]aneN3-dipeptide conjugates as metal-free DNA nucleases” (Bioorg Med Chem Lett, 2012).

Common to all, as to assay type: nucleic-acid assay
In test [1] the test system is Nucleic Acid. The test can be described thus: Displacement of ethidium bromide from calf thymus DNA after 1 min by fluorimetry. The settings on record: Bos taurus.
Test [2] deals with Nucleic Acid. Nature of the test: Induction of Escherichia coli pUC18 DNA cleavage assessed as formation of open circular DNA at 200 uM after 48 hrs by agarose gel electrophoresis.
Test [3] deals with Nucleic Acid. Nature of the test: Induction of Escherichia coli pUC18 DNA cleavage assessed as formation of open circular DNA at 200 uM after 48 hrs by agarose gel electrophoresis in presence of EDTA.
For test [4], the system named is Nucleic Acid. The test can be described thus: Induction of Escherichia coli pUC18 DNA cleavage assessed as formation of open circular DNA at 200 uM after 48 hrs by agarose gel electrophoresis in presence of […].
The test system of test [5] is Nucleic Acid. Nature of the test: Induction of Escherichia coli pUC18 DNA cleavage assessed as formation of open circular DNA at 200 uM from 6 to 48 hrs by agarose gel electrophoresis.
Test [6] concerns Nucleic Acid. Nature of the test: Induction of Escherichia coli pUC18 DNA cleavage assessed as formation of open circular DNA at 200 uM after 48 hrs by agarose gel electrophoresis in presence of hydroxyl radical scavenger t-BuOH.
Test [7] relates to Nucleic Acid. Nature of the test: Induction of Escherichia coli pUC18 DNA cleavage assessed as formation of open circular DNA at 200 uM after 48 hrs by agarose gel electrophoresis in presence of singlet oxygen radical scavenger NaN3.
Test [8] concerns Nucleic Acid. Nature of the test: Induction of Escherichia coli pUC18 DNA cleavage assessed as formation of linear DNA at 50 to 500 uM after 48 hrs by agarose gel electrophoresis.
In test [9] the test system is Nucleic Acid. The test can be described thus: Induction of Escherichia coli pUC18 DNA cleavage assessed as formation of open circular DNA at 200 uM after 48 hrs by agarose gel electrophoresis in presence of hydroxyl radical scavenger DMSO.
In test [10] the test system is Nucleic Acid. Nature of the test: Induction of Escherichia coli pUC18 DNA cleavage assessed as formation of linear DNA at 200 uM after 48 hrs by agarose gel electrophoresis.

In the case of `COC(=O)[C@H](Cc1ccc(O)cc1)NC(=O)[C@H](CC(C)C)NC(=O)CN1CCCNCCCNCCC1`, the Kapp in test [1] worked out at 6.4 ×10⁴ /M. The Activity in [2] came to 50%.

With `COC(=O)CNC(=O)CN`, in test [2], the outcome was inactive.

With `COC(=O)[C@H](Cc1ccc(O)cc1)NC(=O)[C@@H](N)CC(C)C` (H-Leu-Tyr-OMe), the outcome in test [2] was inactive.

In test [1], `COC(=O)[C@H](CO)NC(=O)[C@H](CC(C)C)NC(=O)CN1CCCNCCCNCCC1` showed a Kapp of 7.2 ×10⁴ /M. Further, in test [2], the Activity stood at 50%.

As to `COC(=O)[C@H](C)NC(=O)[C@@H](N)CC(C)C` (H-Leu-Ala-OMe), in test [2], the outcome was inactive.

`COC(=O)[C@H](CCCCN)NC(=O)[C@H](CC(C)C)NC(=O)CN1CCCNCCCNCCC1`: the result in [3], in test [4], in [5], in test [6], in test [7] and in [8] was Active. Also, the outcome in [9] was Active. Besides, the Kapp in [1] is 7.1 ×10⁴ /M. In addition, the Activity in [2] was 50%.

As for `COC(=O)[C@H](Cc1ccccc1)NC(=O)[C@@H](N)CC(C)C` (H-Leu-Phe-OMe), in [2], the result was inactive.

Turning to `COC(=O)[C@H](C)NC(=O)[C@H](CC(C)C)NC(=O)CN1CCCNCCCNCCC1`, the outcome in test [3], in test [4], in [5], in test [6], in [7] and in test [8] was Active. Besides, the result in test [9] was Active. The Kapp in [1] turned out to be 5.9 ×10⁴ /M. Besides, the result in test [10] was inactive. Besides, in [2], the Activity amounted to 50%.

In turn, `COC(=O)[C@H](Cc1ccccc1)NC(=O)[C@H](CC(C)C)NC(=O)CN1CCCNCCCNCCC1` displayed a Kapp in test [1] of 6.6 ×10⁴ /M. Besides, the Activity in test [2] amounted to 50%.

On to `COC(=O)[C@H](CO)NC(=O)[C@@H](N)CC(C)C` (H-Leu-Ser-OMe), for which, in test [2], the result was inactive.

Consider `COC(=O)CNC(=O)[C@H](CC(C)C)NC(=O)CN1CCCNCCCNCCC1`, for which the Kapp in test [1] was determined as 4 ×10⁴ /M. Besides, the Activity in test [2] was found to be 50%.

On to `COC(=O)CNC(=O)CNC(=O)CN1CCCNCCCNCCC1`, for which the Kapp in test [1] is 4.2 ×10⁴ /M. Further, the Activity in [2] was 50%.

As to `COC(=O)CNC(=O)[C@@H](N)CC(C)C` (H-Leu-Gly-OMe), in test [2], the result was inactive.

As for `COC(=O)[C@H](Cc1c[nH]c2ccccc12)NC(=O)[C@H](CC(C)C)NC(=O)CN1CCCNCCCNCCC1`, the Kapp in test [1] was 4.7 ×10⁴ /M. The Activity in test [2] was found to be 50%.

Take `COC(=O)[C@H](Cc1c[nH]c2ccccc12)NC(=O)[C@@H](N)CC(C)C`: the outcome in test [2] was inactive.

Turning to `COC(=O)[C@H](CCCCNC(=O)OCC1c2ccccc2-c2ccccc21)NC(=O)[C@@H](N)CC(C)C` (H-Leu-Lys(Fmoc)-OMe), the result in test [2] was inactive.
